For orientation: melting point means the temperature, or range, at which the solid turns liquid.

The record followed here is a melting point compilation (Tetko et al.; mined from patent text by program, amines drawn as free bases though some values may be those of a salt).

The compound `O=C(c1cnoc1C1CC1)c1ncc(Cl)cc1Cl` had a melting point of 74 to 75 °C. In turn, `O=C1C[C@@H](O)C[C@H](/C=C/c2c(Cl)cc(Cl)cc2Oc2ccccc2)O1` (relative stereo) had a melting point of 124 to 126 °C. For `Cc1cccc2c1O[C@@H](CN1CCC(CNC(=O)c3cccnc3N)CC1)CO2` the value was 56 to 58 °C; for `CCCCCS(=O)(=O)NC(=O)/C=C/c1cc(OCCOC)nn1Cc1ccc(Cl)cc1Cl`, 82 to 85 °C. For `CCOC(=O)[C@H](Cc1ccc(O)cc1)NC(=O)c1c(F)cccc1Cl` the value was 144 to 145 °C; for `CNC(=O)Oc1c(OC)cc(OC)c2ccccc12`, 131 to 133 °C; for `CCC1c2cccn2-c2ccc(C(F)(F)F)cc2N1S(=O)(=O)c1ccc(OC)c(C)c1` (centres undefined), 151 to 154 °C. Compound `CC(=O)N1CCn2c(CN3CCOCC3)ccc2C1` registered a melting point of 117 to 118 °C. `O=C(Oc1ccc(F)cc1)c1cccc(F)c1` showed a melting point of 63.5 to 66 °C.

In turn, `O=C(O)CN1C(=O)C(=Cc2cc(Cl)ccc2O)SC1=S` showed a melting point of 243 to 247 °C. For `CC(CCNC1=Nc2cccc3cccc1c23)c1cccnc1` (centres undefined) the value was 160 to 163 °C. `CCOC(=O)C(NO)NC(C)=O` (centres undefined) came in with a melting point of 119 to 121 °C. `Cc1oc(-c2ccccc2)nc1COc1ccc(CON=C(CCCCCCC(=O)O)c2ccc(Cl)cc2)cc1`: the melting point lay within 54 to 57 °C.

For `N#CC(C#N)C(c1cccc2ccccc12)c1cccc2ccccc12`, the melting point was 179 to 181 °C.

As to `Cc1oc2c(C)cc(C(=O)O)cc2c1C`, the melting point is 235 to 237 °C. Then `COc1cc(C(=O)N2CCN(C(=O)C3=Cc4cc(O)c(O)cc4CCC3)CC2)cc(OC)c1OC`, with 206 to 207 °C; and `O=C1NCCN1c1ccc(S(=O)(=O)Nc2ccc(Cl)cc2)cc1`, with 234 to 236 °C; and `CC(C)(C)NC(=O)N(Cc1ccccc1)CC(O)C(Cc1ccccc1)NC(=O)C(CC(N)=O)NC(=O)c1ccc2ccccc2n1` (centres undefined), with 110 to 112 °C. Then `CCn1c(=O)c2[nH]c(/C=C/c3cc(OC)c(OC)cc3[N+](=O)[O-])nc2n(CC)c1=O`, with 284 °C. Then `CCn1c(=O)c(=O)[nH]c2cc([N+](=O)[O-])c(-n3cccc3)cc21`, with > 300 °C; and `CC(=O)NCc1ccc(CN2CCN(c3ccc(Cl)cn3)CC2)cc1`, with 155 to 156 °C; and `O=Cc1nn(-c2ccc([N+](=O)[O-])cc2)c2c1CCC2`, with 209 to 210 °C.

Turning to `CCCCc1cccc2[nH]c(C(=O)O)cc(=O)c12`, the melting point lay within 269 to 270 °C. Then `CCN1CCc2cc(Nc3ncc(Cl)c(Nc4ccccc4C(=O)NC)n3)c(OC)c(N)c2CC1`, with 117 to 160 °C. Then `COC(=O)c1ccc(-c2nnc(-c3ccc(C(C)(C)C)cc3)o2)c([N+](=O)[O-])c1`, with 142 to 143 °C; and `Brc1cccc(Nc2nc(OCC3CCCCC3)c3[nH]cnc3n2)c1`, with 204 to 207 °C; and `CCN(C(=O)C(=O)O)c1ccc2c(C)cc(=O)oc2c1`, with 142 °C.

`CN(C)c1ccc(NC(=O)N(CCC2=CCCCC2)C[C@H]2CCC[C@H](CN(CCC3=CCCCC3)C(=O)Nc3ccc(N(C)C)cc3)C2)cc1` (relative stereo): the melting point was in the range of 80 to 83 °C. For `CC=Cc1ccc2c(c1)C(=O)N(c1ccc(C(C)C(=O)OC(C)(C)C)cc1)C2` (centres undefined) the value was 125 to 130 °C. For `Cc1ccc2c(CC(=O)O)c(C(=O)c3ccc(Cl)cc3)[nH]c2c1` the value was 193 to 195 °C. Then `CCn1c2ccccc2c2cc(/C=C/C(=O)CC(=O)/C=C/c3ccc4c(c3)c3ccccc3n4CC)ccc21`, with 264 to 267 °C.

The compound `CC(=O)N1CCS(=O)c2ccccc2C1` (centres undefined) had a melting point of 156 to 157 °C. Then `CCOC(=O)N1CCN(CCS(=O)c2ccccc2)CC1` (centres undefined), with 76 °C. As for `CC(C)(CNc1ccc(C2=NNC(=O)CC2)cc1)NCC(O)COc1ccccc1C#N` (centres undefined), the melting point is 126 to 128 °C.

With `N#Cc1cc2c(=O)c3ccccc3ccn2c1`, the melting point amounted to 197 °C. Then `O=c1ccc(C(F)(F)F)cn1-c1ccc(NCCO)cc1Cl`, with 161 to 164 °C. For `CC(C)C(=O)OC(OC(=O)NC1(C(=O)O)CC1)C(C)C` (centres undefined) the value was 127 to 129 °C; for `C#CC1N(C(=O)Oc2ccccc2)c2ccc(OCc3ccccc3[N+](=O)[O-])cc2C23OC12CCCC3O` (centres undefined), 207 to 209 °C. Turning to `COc1ccc(NS(=O)(=O)c2ccc(N3CCNC3=O)cc2)cc1`, the melting point lay within 210 to 211 °C. Then `O=C(O)CCNc1ccccc1CNC(=O)C1Cc2ccccc2N1S(=O)(=O)c1ccc(-c2ccc(F)cc2F)cc1` (centres undefined), with 106 to 110 °C; and `O=C(O)c1ccc2c(c1)C(=O)c1cccc(C(=O)O)c1S2(=O)=O`, with 350 to 351 °C; and `Cc1ncn(Nc2ccccc2)c1C`, with 178 °C.

As to `O=C1N(Cc2nc(C(F)(F)F)cs2)c2ccccc2C12COc1cc3c(cc12)OCCO3` (centres undefined), the melting point was in the range of 169 to 170 °C. Then `O=C(O)Cc1c(C(=O)c2cc3c(cn2)CCCC3)[nH]c2cc(Cl)ccc12`, with 225 °C; and `CC(C)Oc1ccc(F)c(-c2nn(C(C)c3oc4ccccc4c(=O)c3-c3cccc(F)c3)c3ncnc(N)c23)c1` (centres undefined), with 198 to 201 °C; and `O=C(O)c1ccc(COCc2csc3nc(C(=O)NCc4ccc(F)c(F)c4)[nH]c(=O)c23)cc1`, with 249 to 251 °C. Compound `COc1cc(C#N)cc2cc(CO)oc12` had a melting point of 149 to 150 °C. For `CCOC(=O)c1cc2c(cn1)[nH]c1cccc(Oc3ncccn3)c12` the value was 273 to 275 °C. Then `O=c1c2ccccc2[nH]n1Cc1cccc2ccccc12`, with 198 to 200 °C. In turn, `Fc1cc(CC2(Cc3ccnc(F)c3)c3ccccc3-c3nccnc32)ccn1` showed a melting point of 119 to 120 °C. `CC(=O)Oc1cc2nc(-c3ccccc3)nn2c2ccccc12` gave a melting point of 200 to 202 °C. As for `CC(=O)NC(=O)CSC(c1ccccc1)(c1ccccc1)c1ccccc1`, the melting point lay within 147 to 149 °C. Then `Cc1ccc(C(Cl)=NNc2ccccc2)cc1`, with 133 to 134 °C; and `CCCCc1ccc(CCCCCCC(=O)O)cc1`, with 32 to 33 °C. In turn, `Cc1cc(C)c2c(n1)Nc1ccccc1NC2=O` registered a melting point of 297 to 299 °C.

For `CC1(C)CC(=O)Nc2cc(-c3nc4ccccc4[nH]3)ccc21`, the melting point is 314 to 316 °C. Then `CCCCNC(=S)N1CCc2[nH]cnc2C1CC` (centres undefined), with 180 °C; and `C#CCN(C)Cc1nc2ccc(OC(F)(F)F)cc2s1`, with 117 to 120 °C. Then `O=c1nc(-c2ccccc2)cnn1-c1cc(Cl)cc(Cl)c1`, with 160 to 161 °C; and `CC(=O)Nc1ccc(Cn2c3c(c4cc(F)cc(F)c42)CCCC3CC(=O)O)cc1` (centres undefined), with 237 to 239 °C.

The compound `CC(C)(CO)COc1ccc(N)cc1C#N` yielded a melting point of 194 to 196 °C. Then `COC(=O)Cc1ccc(N)c(O)c1`, with 112 to 114 °C. Then `COc1ccc(C(=O)Nc2ccccc2NC(=O)c2ccc(OC)c(OC)c2)cc1OC`, with 191 to 192 °C; and `CCCCc1nn(CC#N)c(=O)n1Cc1ccc(-c2ccccc2-c2nnn[nH]2)cc1`, with 86 to 88 °C. `N#Cc1cc2c(cc1C(F)(F)F)[nH]c(=O)c(=O)n2OC(=O)c1ccccc1` had a melting point of 186 °C. For `CCn1c(-c2ccc(OC)c(OC)c2)cc(=S)n(C)c1=O` the value was 147 to 150 °C. For `CN1CC=C(C2=C(C#N)C(c3cccc4nonc34)c3c[nH]nc3N2)CC1` (centres undefined) the value was 218 °C; for `C[Si](C)(C)OC(Cn1ccnc1)(Cn1cncn1)c1ccc(Cl)cc1Cl` (centres undefined), 82 to 85 °C. For `COc1ccc(Nc2ccncc2)cc1` the value was 129 to 134 °C; for `CON1C(C)(C)CC(O)CC1(C)C`, 92 to 93 °C; for `CCOC(=O)c1cc(=O)n(CCC(C(=O)NO)N(C)S(=O)(=O)c2ccc(Oc3ccccc3)cc2)c(=O)[nH]1` (centres undefined), 159 to 160 °C. As to `C=CCn1ccnc1C(O)(c1ccccc1)c1ccc(Cl)cc1` (centres undefined), the melting point lay within 165 to 166 °C. Then `COc1cc(C(=O)O)ccc1OCCCCCOc1nc2ccccc2s1`, with 130 to 131 °C. For `FC(F)(F)c1cccc(N=c2ccn3ccccc3c2)c1` the value was 134 to 135 °C.

Regarding `CC1(C)SCN(CCCCN2CCN(c3n[nH]c4cc(F)ccc34)CC2)C1=O`, the melting point fell in the range of 123 to 125 °C.

For the compound `Cc1c(Br)ccc([N+](=O)[O-])c1C#N`, the melting point fell in the range of 116 to 118 °C. Then `CCCCOC(=O)c1c(CBr)nc2cc(OC)c(OC)cc2c1-c1ccc(OC)c(OC)c1`, with 160 to 161 °C; and `CN1CCC2c3[nH]c4ccccc4c3CCN2C1` (centres undefined), with 168 °C. As to `CCc1c(C)c(=O)oc2cc(-c3nnc(C)s3)cc(OC)c12`, the melting point lay within 135 to 138 °C.

Compound `Cc1cc(C)cc(C(=O)Cc2ccnc(N)c2)c1` came in with a melting point of 123 to 126 °C. For `Cc1cc(I)cc2c1oc(=O)n2C` the value was 100 to 101 °C. Then `CC(Sc1ccc(NC(=O)NC(=O)c2ccccc2Cl)cc1)c1ccccc1` (centres undefined), with 226 °C; and `CN(C)c1ccc(-c2[nH]nc3c2C(=O)c2c(NC(=O)CN4CCOCC4)cccc2-3)cc1`, with > 300 °C; and `Cc1ccc(N2CCN(c3c(C)c(C)c4c(c3C)CC(C)(C)O4)CC2)cc1`, with 152 to 155 °C.

The compound `O=C1COC(c2ccccc2)c2ccccc2N1` (centres undefined) showed a melting point of 193 to 195 °C.

For the compound `COc1c(C)c(OC(=O)c2c(C)c(C)c(OCCCOc3ccc(F)cc3)c(C)c2OC)c(C)c(C)c1C(N)=O`, the melting point lay within 146 to 149 °C.

`COC(=O)CCC(=O)c1ccc(-c2ccc(Cl)s2)cc1` displayed a melting point of 117 to 118 °C. Compound `CCc1cc(Cl)c(S(C)(=O)=O)cc1C(=O)O` showed a melting point of 180 to 183 °C. For `CC(C(=O)O)c1cccc(OCCC(=O)O)c1` (centres undefined) the value was 144 to 146 °C.
